# Assays:
# C57B16 mice [1] = test: Forced swim test; type: in vivo; settings: 3 and 5 mg/kg i.p.; FIGS. 10A and 10B
# Protocol: • 1. Fill a 12 cm diameter glass cylinder to 10 cm with 22° C. water. • 2. Place two animals simultaneously in individual side-by-side cylinders separated by an opaque screen. • 3. Place mice in the cylinders for 6 minutes. • 4. Observe the behaviour of the mice for the last 4-minutes of the 6-minute experimental session. • 5. Sessions are videotaped and scored blind, Immobility is scored by summing the time spent immobile; movements necessary to maintain the animals head above water were not scored with data from treated groups compared with data from the control group using nonpaired Student's t tests (two tailed). • 6. Animals are dried with paper towels and heat lamps. FST in Rats: Habituation Session (Day 1) • 1. On Day 1, […] prior to testing, place the animals in the experimental room 60 min before the beginning of the habituation session. Randomly assign animals to a drug treatment, but give all animals within a cage the same treatment. Make food and water available throughout the experiment. • 2. Weigh two animals individually, then place one rat in each of the two cylinders (20 cm in diameter×40 cm high) containing water (25° C.) for 15 min (habituation session). No scoring of immobility is performed during the habituation session. […]
# Values are expressed as mean±S.E.M (n=8). Statistical difference was determined using a Mann Whitney non-parametric U-test. […]
# C57B16 mice [2] = test: Open-field test; type: in vivo; settings: 3 and 5 mg/kg i.p. once daily for 7 days; FIG. 3
# Description: The open field test is designed to measure behavioural responses such as locomotor activity, hyperactivity, and exploratory behaviors. Open field is also used as a measure of anxiety. Rats and mice tend to avoid brightly illuminated, novel, open spaces, so the open field environment acts as an anxiogenic stimulus and allows for measurement of anxiety-induced locomotor activity and exploratory behaviors. Like the elevated maze test described below, open field testing is a one trial test with little or no impact on the animal's subsequent behavior. The apparatus for the open field test was a square (100 cm by 100 cm) made of white Perspex. Each rat is placed in a corner of the field and its behavior recorded for five minutes. All activity is recorded by a video camera mounted above the open field and scored in real-time (or digitized and scored later) by the advanced motion-recognition software package Ethovision by Noldus, that detects and analyzes the movements of the rat or mouse. The total distance, average speed, rearing/elongation behavior, and time spent in various parts of the field (such as, for example, the border areas vs. the open, middle area) is measured and analysed. Testing is carried out in a temperature, noise and light controlled room.
# The Experimental protocol employed in the behavioural evaluation of Captodiamine is outlined in FIG. 7. […]
smiles,measurement,setting,value
"CCCCSc1ccc(C(SCCN(C)C)c2ccccc2)cc1 (stereo not drawn) [Captodiamine, 2-[(4-butylsulfanylphenyl)-phenyl-methyl]sulfanyl-N,N-dimethyl-ethanamin]",time to immobility in the forced swim test,C57B16 mice [1],significant increase on time to immobility
same,basal locomotion in the open-field paradigm,C57B16 mice [2],no influence on basal locomotion
same,time spent in the centre of the open-field arena,C57B16 mice [2],significantly more time in the centre

# Reference: patent publication US8461389B2, “Psycho-pharmaceuticals” (University College Dublin, National University of Ireland, …, priority 2008, dated 2013)
